Publication PMC6288471 (Frontiers in Veterinary Science, 2018)

Tests used:
[1] = Clinical pathologic testing: select biochemical tests; format: in vivo, horses; conditions: for SDH (sorbitol dehydrogenase), median (range): reference interval 0–11; for GLDH (glutamate dehydrogenase), median (range): reference interval 1–8; for UN (urea nitrogen), median (range): reference interval 3.9–10.0; for SAA (serum amyloid A), median (range): reference interval 5–20, 5 mg/L is the lower limit of detection; for GGT (gamma glutamyl transferase), median (range): reference interval 8–29; for GLOB (globulins), median (range): reference interval 24–44; for ALB (albumin), median (range): reference interval 30–37; for CREAT (creatinine), median (range): reference interval 53–141; for TP (total protein), median (range): reference interval 57–77
Experimental: Automated hemogram results were obtained from the EDTA-anticoagulated blood with a hematology analyzer (ADVIA 2120, Siemens Healthcare Diagnostics Inc., Tarrytown, NJ, USA). To verify the automated platelet counts, modified Wright's-stained blood smears were evaluated for platelet clumps by trained medical technologists. Biochemical analysis for renal analytes (serum urea nitrogen and creatinine concentrations), liver enzymes (sorbitol dehydrogenase, glutamate dehydrogenase, aspartate aminotransferase and gamma glutamyl transferase activities), protein-related analytes (total protein, albumin, and globulin concentrations), and the acute phase protein, serum amyloid A, were performed with an automated chemistry analyzer (Hitachi P modular, Roche Diagnostics, Indianapolis, IN, USA) using manufacturer's reagents, with the exception of sorbitol dehydrogenase (Sigma-Aldrich), glutamate dehydrogenase (Randox Laboratories Ltd, Antrim, UK), and serum amyloid A (LZ test Eiken-SAA, Mast House, Merseyside, UK).

P-glycoprotein = conditions: cited from earlier work
[2] = rats; cited from earlier work
platelets = conditions: PRP spiked ex vivo with concentrations similar to 44 to 74 ng/mL, data not shown
[3] = Protein binding of apixaban in spiked platelet-poor plasma (ultrafiltration, UPLC-MS); format: in vitro ADME, horse
Experimental: The supernatant was filtered with a […] syringe filter (Corning Inc.). […] Half of the sample was subsequently frozen at −20°C and the rest was ultracentrifuged at 16,000 × g for 30 min in a molecular exclusion device (Amicon Ultra 30k filter, Millipore), to remove the major plasma proteins. The ultrafiltrate was then frozen at −20°C. Both the spiked plasma and the ultrafiltrate of the spiked plasma were analyzed for apixaban using UPLC-MS.

[4] = rabbits, cited from earlier work

Question: With COc1ccc(-n2nc(C(N)=O)c3c2C(=O)N(c2ccc(N4CCCCC4=O)cc2)CC3)cc1 [apixaban] as the compound, how does the “SDH (sorbitol dehydrogenase), median (range)” value (“SDH (sorbitol dehydrogenase)” for short) ([1]; IV, T0 (before)) read?
Answer: 4 (3–4) U/L

Question: What about the “GLDH (glutamate dehydrogenase), median (range)” value (“GLDH (glutamate dehydrogenase)” below) ([1]; IV, T0 (before)) of the same compound?
Answer: 4 (3–4) U/L

Question: What about the “UN (urea nitrogen), median (range)” value ([1]; IV, T0 (before)) of the same compound?
Answer: 6.8 (6.1–7.8) mmol/L

Question: And the “SAA (serum amyloid A), median (range)” value ([1]; IV, T0 (before))?
Answer: 5 (5–9) mg/L

Question: And the “GGT (gamma glutamyl transferase), median (range)” value (“GGT (gamma glutamyl transferase)” for short) ([1]; IV, T0 (before))?
Answer: 11 (10–13) U/L

Question: What about the “GLOB (globulins), median (range)” value ([1]; IV, T0 (before)) of the same compound?
Answer: 36 (32–38) g/L

Question: And the “ALB (albumin), median (range)” value ([1]; IV, T0 (before))?
Answer: 32 (30–34) g/L

Question: And the “CREAT (creatinine), median (range)” value ([1]; IV, T0 (before))?
Answer: 106 (97–106) μmol/L

Question: And the “TP (total protein), median (range)” value ([1]; IV, T0 (before))?
Answer: 68 (66–71) g/L

Question: What about the “SDH (sorbitol dehydrogenase)” value ([1]; IV, T24) of the same compound?
Answer: 3 (2–4) U/L

Question: What about the “GLDH (glutamate dehydrogenase)” value ([1]; IV, T24) of the same compound?
Answer: 3 (3–5) U/L

Question: And the “UN (urea nitrogen), median (range)” value ([1]; IV, T24)?
Answer: 5.7 (5.4–7.5) mmol/L

Question: What about the “SAA (serum amyloid A), median (range)” value ([1]; IV, T24) of the same compound?
Answer: 8 (5–12) mg/L

Question: And the “GGT (gamma glutamyl transferase)” value ([1]; IV, T24)?
Answer: 11 (10–13) U/L

Question: What about the “GLOB (globulins), median (range)” value ([1]; IV, T24) of the same compound?
Answer: 37 (32–40) g/L

Question: What about the “ALB (albumin), median (range)” value ([1]; IV, T24) of the same compound?
Answer: 32 (30–35) g/L

Question: What about the “CREAT (creatinine), median (range)” value ([1]; IV, T24) of the same compound?
Answer: 115 (106–115) μmol/L

Question: And the “TP (total protein), median (range)” value ([1]; IV, T24)?
Answer: 68 (67–72) g/L

Question: And the “SDH (sorbitol dehydrogenase)” value ([1]; PO, T0 (before))?
Answer: 5 (4–10) U/L

Question: What about the “GLDH (glutamate dehydrogenase)” value ([1]; PO, T0 (before)) of the same compound?
Answer: 6 (4–10) U/L

Question: And the “UN (urea nitrogen), median (range)” value ([1]; PO, T0 (before))?
Answer: 6.4 (5.4–7.1) mmol/L

Question: And the “SAA (serum amyloid A), median (range)” value ([1]; PO, T0 (before))?
Answer: 5 (5–7) mg/L

Question: What about the “GGT (gamma glutamyl transferase)” value ([1]; PO, T0 (before)) of the same compound?
Answer: 12 (7–13) U/L

Question: And the “GLOB (globulins), median (range)” value ([1]; PO, T0 (before))?
Answer: 35 (30–38) g/L

Question: What about the “ALB (albumin), median (range)” value ([1]; PO, T0 (before)) of the same compound?
Answer: 32 (29–32) g/L

Question: And the “CREAT (creatinine), median (range)” value ([1]; PO, T0 (before))?
Answer: 97 (88–106) μmol/L

Question: And the “TP (total protein), median (range)” value ([1]; PO, T0 (before))?
Answer: 67 (62–70) g/L

Question: What about the “SDH (sorbitol dehydrogenase)” value ([1]; PO, T24) of the same compound?
Answer: 4 (3–5) U/L

Question: And the “GLDH (glutamate dehydrogenase)” value ([1]; PO, T24)?
Answer: 4 (4–7) U/L

Question: What about the “UN (urea nitrogen), median (range)” value ([1]; PO, T24) of the same compound?
Answer: 5.7 (4.6–6.4) mmol/L

Question: And the “SAA (serum amyloid A), median (range)” value ([1]; PO, T24)?
Answer: 5 (5–5) mg/L

Question: And the “GGT (gamma glutamyl transferase)” value ([1]; PO, T24)?
Answer: 12 (9–13) U/L

Question: And the “GLOB (globulins), median (range)” value ([1]; PO, T24)?
Answer: 36 (30–39) g/L

Question: And the “ALB (albumin), median (range)” value ([1]; PO, T24)?
Answer: 32 (29–33) g/L

Question: And the “CREAT (creatinine), median (range)” value ([1]; PO, T24)?
Answer: 106 (97–115) μmol/L

Question: And the “TP (total protein), median (range)” value ([1]; PO, T24)?
Answer: 65 (63–72) g/L

Question: What about the “changes in chosen biochemical test results” value ([1]; horses, 24 h after PO or IV administration) of the same compound?
Answer: no significant changes

Question: What about the P-glycoprotein substrate (P-glycoprotein) of the same compound?
Answer: substrate

Question: What about the “availability after oral administration” value [2] of the same compound?
Answer: 50%

Question: What about the “inhibition of platelet activation in spiked equine PRP” value (platelets) of the same compound?
Answer: did not see any inhibition

Question: And the fraction unbound at 30 min, 200 nM ([3]; horse PPP spiked at 92 ng/mL (200 nM), read-out: mean percentage of protein binding (converted))?
Answer: 0.076

Question: What about the fraction unbound at 30 min, 1000 nM ([3]; horse PPP spiked at 460 ng/mL (1,000 nM), read-out: mean percentage of protein binding (converted)) of the same compound?
Answer: 0.015

Question: And the fraction unbound at 30 min ([3]; horse plasma, range as given in abstract)?
Answer: 0.01 to 0.08

Question: And the half-life ([4]; 2.5 mg/kg IV dose)?
Answer: 36 min

Question: What about the oral absorption ([4]; 10 mg/kg) of the same compound?
Answer: 3%
